Values quoted from earlier work, collected in patent publication US20120301532A1, “COMPOSITIONS AND METHODS FOR TREATING MATERIALS WITH INSECTICIDES AND POTENTIATING AGENTS” (ALLERGY TECHNOLOGIES, LLC, priority 2011, published 2012).

Test system: bed bugs
Settings: bed bug attractants, background statement

O=C=O [CO2]
effective attractant range: ≥ 86 centimeters
